Source: PubChem BioAssay (NCI)
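All cell lines were grown in 96-well plates and treated with compound for 48 hours. GI50 marks 50% less growth. TGI: concentration producing complete growth inhibition.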

What was measured:
Test in all cases: DTP human tumour cell line panel, 48 h
786-0 renal = system: 786-0 renal
A498 renal = system: A498 renal
A549 NSCLC = system: A549 NSCLC
ACHN renal = system: ACHN renal
BT-549 breast = system: BT-549 breast
CAKI-1 renal = system: CAKI-1 renal
CCRF-CEM leukemia = system: CCRF-CEM leukemia
COLO 205 colon = system: COLO 205 colon
DU-145 prostate = system: DU-145 prostate
EKVX NSCLC = system: EKVX NSCLC
HCC-2998 colon = system: HCC-2998 colon
HCT-116 colon = system: HCT-116 colon
HCT-15 colon = system: HCT-15 colon
HL-60(TB) leukemia = system: HL-60(TB) leukemia
HOP-62 NSCLC = system: HOP-62 NSCLC
HOP-92 NSCLC = system: HOP-92 NSCLC
HS 578T breast = system: HS 578T breast
HT29 colon = system: HT29 colon
IGROV1 ovarian = system: IGROV1 ovarian
K-562 leukemia = system: K-562 leukemia
KM12 colon = system: KM12 colon
LOX IMVI melanoma = system: LOX IMVI melanoma
M14 melanoma = system: M14 melanoma
MALME-3M melanoma = system: MALME-3M melanoma
MCF7 breast = system: MCF7 breast
MDA-MB-231 breast = system: MDA-MB-231 breast
MDA-MB-435 = system: MDA-MB-435
MDA-MB-468 breast = system: MDA-MB-468 breast
MOLT-4 leukemia = system: MOLT-4 leukemia
NCI-H226 lung = system: NCI-H226 lung
NCI-H23 lung = system: NCI-H23 lung
NCI-H460 lung = system: NCI-H460 lung
NCI-H522 lung = system: NCI-H522 lung
NCI/ADR-RES ovarian = system: NCI/ADR-RES ovarian
OVCAR-3 ovarian = system: OVCAR-3 ovarian
OVCAR-4 ovarian = system: OVCAR-4 ovarian
OVCAR-5 ovarian = system: OVCAR-5 ovarian
OVCAR-8 ovarian = system: OVCAR-8 ovarian
PC-3 prostate = system: PC-3 prostate
RPMI-8226 leukemia = system: RPMI-8226 leukemia
RXF 393 renal = system: RXF 393 renal
SF-268 CNS = system: SF-268 CNS
SF-295 CNS = system: SF-295 CNS
SF-539 CNS = system: SF-539 CNS
SK-MEL-2 melanoma = system: SK-MEL-2 melanoma
SK-MEL-28 melanoma = system: SK-MEL-28 melanoma
SK-MEL-5 melanoma = system: SK-MEL-5 melanoma
SK-OV-3 ovarian = system: SK-OV-3 ovarian
SN12C renal = system: SN12C renal
SNB-19 CNS = system: SNB-19 CNS
SNB-75 CNS = system: SNB-75 CNS
SW-620 colon = system: SW-620 colon
T-47D breast = system: T-47D breast
TK-10 renal = system: TK-10 renal
U251 CNS = system: U251 CNS
UACC-257 melanoma = system: UACC-257 melanoma
UACC-62 melanoma = system: UACC-62 melanoma
UO-31 renal = system: UO-31 renal

`CC(=O)/C=C/c1cccc2c1C(=O)NC(C)(c1cc3cc(Br)ccc3oc1=O)N2` (stereo unspecified) was tested, and the GI50 (786-0 renal) was 13.4 µM, the TGI (786-0 renal) was 32 µM and the GI50 (A498 renal) was 28.1 µM. The TGI (A498 renal) was > 100 µM, the GI50 (A549 NSCLC) was 23.5 µM and the TGI (A549 NSCLC) was > 100 µM. For the same molecule, the GI50 (ACHN renal) was 5.02 µM, the TGI (ACHN renal) was > 100 µM and the GI50 (BT-549 breast) was 4.78 µM. It also gave a TGI (BT-549 breast) of 18.9 µM, a GI50 (CAKI-1 renal) of 3.87 µM and a TGI (CAKI-1 renal) of 28.5 µM. It also gave a GI50 (CCRF-CEM leukemia) of 4.87 µM, a TGI (CCRF-CEM leukemia) of 56.7 µM and a GI50 (COLO 205 colon) of 19.6 µM. The TGI (COLO 205 colon) was 40.9 µM, the GI50 (DU-145 prostate) was 8.98 µM and the TGI (DU-145 prostate) was 22.3 µM. It also gave a GI50 (EKVX NSCLC) of 7.36 µM, a TGI (EKVX NSCLC) of 21 µM and a GI50 (HCC-2998 colon) of 15.1 µM. For the same molecule, the TGI (HCC-2998 colon) was 28.6 µM, the GI50 (HCT-116 colon) was 7.13 µM and the TGI (HCT-116 colon) was 21.3 µM. For the same molecule, the GI50 (HCT-15 colon) was 10.6 µM, the TGI (HCT-15 colon) was 32.4 µM and the GI50 (HL-60(TB) leukemia) was 5.61 µM. The TGI (HL-60(TB) leukemia) was > 100 µM, the GI50 (HOP-62 NSCLC) was 15.7 µM and the TGI (HOP-62 NSCLC) was 44 µM. The GI50 (HOP-92 NSCLC) was 2.19 µM, the TGI (HOP-92 NSCLC) was 18 µM and the GI50 (HS 578T breast) was 17.2 µM. For the same molecule, the TGI (HS 578T breast) was > 100 µM, the GI50 (HT29 colon) was 20.7 µM and the TGI (HT29 colon) was 73.6 µM. It also gave a GI50 (IGROV1 ovarian) of 8.12 µM, a TGI (IGROV1 ovarian) of 32.9 µM and a GI50 (K-562 leukemia) of 4.67 µM. For the same molecule, the TGI (K-562 leukemia) was > 100 µM, the GI50 (KM12 colon) was 12.4 µM and the TGI (KM12 colon) was 30.8 µM. The GI50 (LOX IMVI melanoma) was 10.1 µM, the TGI (LOX IMVI melanoma) was 22 µM and the GI50 (M14 melanoma) was 9.29 µM. For the same molecule, the TGI (M14 melanoma) was 25.3 µM, the GI50 (MALME-3M melanoma) was 11.4 µM and the TGI (MALME-3M melanoma) was 29.9 µM. The GI50 (MCF7 breast) was 10.7 µM, the TGI (MCF7 breast) was 32.4 µM and the GI50 (MDA-MB-231 breast) was 7.35 µM. For the same molecule, the TGI (MDA-MB-231 breast) was 39.6 µM, the GI50 (MDA-MB-435) was 10.6 µM and the TGI (MDA-MB-435) was 30.9 µM. The GI50 (MDA-MB-468 breast) was 4.28 µM, the TGI (MDA-MB-468 breast) was 19 µM and the GI50 (MOLT-4 leukemia) was 8.47 µM. For the same molecule, the TGI (MOLT-4 leukemia) was > 100 µM, the GI50 (NCI-H226 lung) was 13.6 µM and the TGI (NCI-H226 lung) was 58.6 µM. It also gave a GI50 (NCI-H23 lung) of 11.9 µM, a TGI (NCI-H23 lung) of 26.4 µM and a GI50 (NCI-H460 lung) of 15.7 µM. For the same molecule, the TGI (NCI-H460 lung) was 67.6 µM, the GI50 (NCI-H522 lung) was 13.6 µM and the TGI (NCI-H522 lung) was 28.8 µM. The GI50 (NCI/ADR-RES ovarian) was 15 µM, the TGI (NCI/ADR-RES ovarian) was 44.5 µM and the GI50 (OVCAR-3 ovarian) was 7.56 µM. For the same molecule, the TGI (OVCAR-3 ovarian) was 24.7 µM, the GI50 (OVCAR-4 ovarian) was 11.5 µM and the TGI (OVCAR-4 ovarian) was > 100 µM. It also gave a GI50 (OVCAR-5 ovarian) of 15.6 µM, a TGI (OVCAR-5 ovarian) of 38.3 µM and a GI50 (OVCAR-8 ovarian) of 10.1 µM. The TGI (OVCAR-8 ovarian) was > 100 µM, the GI50 (PC-3 prostate) was 5.95 µM and the TGI (PC-3 prostate) was 39.1 µM. It also gave a GI50 (RPMI-8226 leukemia) of 4.04 µM, a TGI (RPMI-8226 leukemia) of 33.8 µM and a GI50 (RXF 393 renal) of 2.33 µM. It also gave a TGI (RXF 393 renal) of 10.7 µM, a GI50 (SF-268 CNS) of 12.4 µM and a TGI (SF-268 CNS) of 48.3 µM. The GI50 (SF-295 CNS) was 11.1 µM, the TGI (SF-295 CNS) was 25.4 µM and the GI50 (SF-539 CNS) was 8.67 µM. It also gave a TGI (SF-539 CNS) of 22.3 µM, a GI50 (SK-MEL-2 melanoma) of 10.2 µM and a TGI (SK-MEL-2 melanoma) of 27.3 µM. The GI50 (SK-MEL-28 melanoma) was 13.7 µM, the TGI (SK-MEL-28 melanoma) was 27.8 µM and the GI50 (SK-MEL-5 melanoma) was 9.78 µM. The TGI (SK-MEL-5 melanoma) was 21.6 µM, the GI50 (SK-OV-3 ovarian) was 25.2 µM and the TGI (SK-OV-3 ovarian) was > 100 µM. For the same molecule, the GI50 (SN12C renal) was 6.57 µM, the TGI (SN12C renal) was 24.6 µM and the GI50 (SNB-19 CNS) was 12.5 µM. For the same molecule, the TGI (SNB-19 CNS) was 25.1 µM, the GI50 (SNB-75 CNS) was 1.3 µM and the TGI (SNB-75 CNS) was 19.3 µM. The GI50 (SW-620 colon) was 19.5 µM, the TGI (SW-620 colon) was > 100 µM and the GI50 (T-47D breast) was 11.5 µM. The TGI (T-47D breast) was 64 µM, the GI50 (TK-10 renal) was 24.5 µM and the TGI (TK-10 renal) was 89.6 µM. For the same molecule, the GI50 (U251 CNS) was 12.1 µM, the TGI (U251 CNS) was 25.5 µM and the GI50 (UACC-257 melanoma) was 10.4 µM. It also gave a TGI (UACC-257 melanoma) of 26.2 µM, a GI50 (UACC-62 melanoma) of 7.01 µM and a TGI (UACC-62 melanoma) of 21.3 µM. It also gave a GI50 (UO-31 renal) of 3.59 µM and a TGI (UO-31 renal) of 19.1 µM.
